Values of other authors as cited in US20230304100A1, “METHOD OF PREDICTING THERAPEUTIC RESPONSE AND PROGNOSIS OF METASTATIC BREAST CANCER TO CHEMOTHERAPEUTIC AGENTS, AND TREATING METASTATIC BREAST CANCER” (Samsung Life Public Welfare Foundation, priority 2021, published 2023).

System: premenopausal HR+/HER2− metastatic breast cancer patients
Settings: Young-PEARL study

## CCCCCOC(=O)Nc1nc(=O)n([C@@H]2O[C@H](C)[C@@H](O)[C@H]2O)cc1F [capecitabine]
  median progression-free survival (PFS): 14.4 months
